# System: lipid peroxidation products
# Test: Thioglycollate/Zymosan-induced peritonitis model: lipid oxidation products in peritoneal lavage by electrospray ionization tandem mass spectrometry
# Assay type: in vivo, mice
# Experimental: Thioglycollate/Zymosan—Induced Peritonitis Model: Wild-type mice were administered either 500 mg/kg body weight of disodium disuccinate astaxanthin (ddAst/Cardax™) in an oil emulsion vehicle, or normal saline (NS) as a negative control, by oral gavage at 24 hours intervals beginning 7 days prior to the induction of peritonitis. Peritonitis was induced experimentally as follows: mice were injected intraperitoneally with 1 ml of 4% by weight thioglycollate (Tg) broth, to induce the recruitment of proinflammatory cells to the peritoneum. Either 16 hours or 72 hours after recruitment, approximately half of the mice were injected intraperitoneally with 250 mg/kg body weight of zymosan (Z) for a further 4 hours. The mice not receiving zymosan underwent no further treatment. Peritoneal lavage was performed in control animals or animals treated with (ddAst) 16 hours post Tg injection, or 20 h following the combination of both Tg injection (16 hours) followed by Z injection (4 hours), as indicated (Tg/Z). Peritoneal lavages were performed with phosphate-buffered saline containing antioxidant (0.1 mM butylated hydroxytoluene (BHT)) and 2 mM of the metal chelator diethylenetriamine pentaacetic acid (DTPA) according to established practices in the art. The lavage suspensions were transferred to screw-capped tubes under an argon atmosphere, and immediately centrifuged at 1000 rpm in a table top microcentrifuge for 10 min at 4° C. to remove whole cells and debris. All analyses of lipid peroxidation products was performed on cell-free lavage supernatants. Cell pellets were resuspended in phosphate-buffered saline containing 0.1 mM BHT and 0.1 mM DTPA, and differential cell counts (macrophages, monocytes, eosinophils, lymphocytes, neutrophils, and erythrocytes) were performed on cytospun preparations of isolated cells according to established procedures in the art.
# Electrospray ionization tandem mass spectrometry was used to simultaneously quantify individual molecular species of HETEs, HPETEs, the prostaglandin PGF2α, F2-isoprostanoids, hydroxy- and hydroperoxy-octadecadienoic acids (H(P)ODEs), and their precursors, arachidonic acid (AA) and linoleic acid (LA). Additionally, the molar ratios of o-tyrosine (oY/F). were measured.
# [1] = 72 Hour Thioglycollate/4 Hour Zymosan, 500 mg/kg oral gavage, P-VALUE 0.772 NP
# [2] = 72 Hour Thioglycollate/4 Hour Zymosan, 500 mg/kg oral gavage, P-VALUE 0.862 NP
# [3] = 72 Hour Thioglycollate/4 Hour Zymosan
# [4] = 72 Hour Thioglycollate, 500 mg/kg oral gavage, P-VALUE 0.117
# [5] = 72 Hour Thioglycollate, 500 mg/kg oral gavage, P-VALUE 0.275
# [6] = 72 Hour Thioglycollate, 500 mg/kg oral gavage, P-VALUE 0.325 NP
# [7] = 72 Hour Thioglycollate, 500 mg/kg oral gavage, P-VALUE 0.349
# [8] = 72 Hour Thioglycollate, 500 mg/kg oral gavage, P-VALUE 0.393
# [9] = 72 Hour Thioglycollate, 500 mg/kg oral gavage, P-VALUE 0.512
# [10] = 72 Hour Thioglycollate, 500 mg/kg oral gavage, P-VALUE 0.524 NP
# [11] = 72 Hour Thioglycollate, 500 mg/kg oral gavage, P-VALUE 0.542
# [12] = 72 Hour Thioglycollate, 500 mg/kg oral gavage, P-VALUE 0.603 NP
# [13] = 72 Hour Thioglycollate, 500 mg/kg oral gavage, P-VALUE 0.726
# [14] = 72 Hour Thioglycollate, 500 mg/kg oral gavage, P-VALUE 0.741
# [15] = 72 Hour Thioglycollate, 500 mg/kg oral gavage, P-VALUE 0.793
# [16] = 72 Hour Thioglycollate, 500 mg/kg oral gavage, P-VALUE 0.862 NP
# [17] = 72 Hour Thioglycollate, 500 mg/kg oral gavage, P-VALUE 0.968
# [18] = 16 hours Tg/4 hour Z, 500 mg/kg oral gavage
# [19] = 16 hours Tg, 500 mg/kg oral gavage
# [20] = 72 hours Tg/4 hour Z, 500 mg/kg oral gavage
# [21] = Baseline, 500 mg/kg oral gavage, P-VALUE 0.081 NP
# [22] = Baseline, 500 mg/kg oral gavage, P-VALUE 0.158 NP
# [23] = Baseline, 500 mg/kg oral gavage, P-VALUE 0.271
# [24] = Baseline, 500 mg/kg oral gavage, P-VALUE 0.290
# [25] = Baseline, 500 mg/kg oral gavage, P-VALUE 0.298 NP
# [26] = Baseline, 500 mg/kg oral gavage, P-VALUE 0.302
# [27] = Baseline, 500 mg/kg oral gavage, P-VALUE 0.391
# [28] = Baseline, 500 mg/kg oral gavage, P-VALUE 0.418
# [29] = Baseline, 500 mg/kg oral gavage, P-VALUE 0.471 NP
# [30] = Baseline, 500 mg/kg oral gavage, P-VALUE 0.810 NP
# [31] = Baseline, 500 mg/kg oral gavage, P-VALUE 0.843
# [32] = Baseline, 500 mg/kg oral gavage, P-VALUE 0.920
# [33] = Baseline, 500 mg/kg oral gavage, P-VALUE 1.000 NP
structure (smiles),measurement,setting,value
"CC1=C(/C=C/C(C)=C/C=C/C(C)=C/C=C/C=C(C)/C=C/C=C(C)/C=C/C2=C(C)C(=O)C(OC(=O)CCC(=O)O)CC2(C)C)C(C)(C)CC(OC(=O)CCC(=O)O)C1=O (stereo not shown) [Cardax, disodium disuccinate astaxanthin]",9-HODE MEAN,[1],4.747 pmol
same,9-HODE MEDIAN,[1],3.683 pmol
same,11-HETE MEAN,[2],0.837 pmol
same,11-HETE MEDIAN,[2],0.703 pmol
same,"5-oxo-ETE (pmol), MEAN",[3],0.148 pmol
same,"5-oxo-ETE (ratio), MEAN",[3],0.063 ratio
same,"8-iso-F2a (pmol), MEAN",[3],0.057 pmol
same,"8-iso-F2a/AA (ratio), MEAN",[3],0.017 ratio
same,"5-oxo-ETE (pmol), MEDIAN",[3],0.116 pmol
same,"5-oxo-ETE (ratio), MEDIAN",[3],0.048 ratio
same,"8-iso-F2a (pmol), MEDIAN",[3],0.037 pmol
same,"8-iso-F2a/AA (ratio), MEDIAN",[3],0.011 ratio
same,9-HETE MEAN,[4],0.274 pmol
same,9-HETE MEDIAN,[4],0.299 pmol
same,9-HODE/LA (ratio) MEAN,[5],0.180
same,9-HODE/LA (ratio) MEDIAN,[5],0.109
same,5-HETE MEAN,[6],0.129 pmol
same,5-HETE MEDIAN,[6],0.082 pmol
same,9-HODE MEAN,[7],1.831 pmol
same,9-HODE MEDIAN,[7],1.585 pmol
same,13-HODE MEAN,[8],5.552 pmol
same,13-HODE MEDIAN,[8],5.520 pmol
same,11-HETE/AA (ratio) MEAN,[9],0.151
same,11-HETE/AA (ratio) MEDIAN,[9],0.132
same,Arachidonic Acid MEAN,[10],836.27 pmol
same,Arachidonic Acid MEDIAN,[10],758.43 pmol
same,PGF2a/AA (ratio) MEAN,[11],0.030
same,PGF2a/AA (ratio) MEDIAN,[11],0.033
same,Linoleic Acid MEAN,[12],14242 pmol
same,Linoleic Acid MEDIAN,[12],10076 pmol
same,Prostaglandin F2α (PGF2α) MEAN,[13],0.021 pmol
same,Prostaglandin F2α (PGF2α) MEDIAN,[13],0.018 pmol
same,11-HETE MEAN,[14],0.112 pmol
same,11-HETE MEDIAN,[14],0.100 pmol
same,5-HETE/AA (ratio) MEAN,[15],0.170
same,5-HETE/AA (ratio) MEDIAN,[15],0.082
same,9-HETE/AA (ratio) MEAN,[16],0.348
same,9-HETE/AA (ratio) MEDIAN,[16],0.241
same,13-HODE/AA (ratio) MEAN,[17],0.504
same,13-HODE/AA (ratio) MEDIAN,[17],0.363
same,"5-oxo-ETE (pmol), MEAN",72 Hour Thioglycollate,0.026 pmol
same,"5-oxo-ETE (ratio), MEAN",72 Hour Thioglycollate,0.021 ratio
same,"8-iso-F2a (pmol), MEAN",72 Hour Thioglycollate,0.010 pmol
same,"8-iso-F2a/AA (ratio), MEAN",72 Hour Thioglycollate,0.016 ratio
same,"5-oxo-ETE (pmol), MEDIAN",72 Hour Thioglycollate,0.000 pmol
same,"5-oxo-ETE (ratio), MEDIAN",72 Hour Thioglycollate,0.000 ratio
same,"8-iso-F2a (pmol), MEDIAN",72 Hour Thioglycollate,0.000 pmol
same,"8-iso-F2a/AA (ratio), MEDIAN",72 Hour Thioglycollate,0.000 ratio
same,5-oxo-EET (pmol) compared to NS,"72 Tg/4 hour Z, 500 mg/kg oral gavage",significant decrease
same,8-iso-F2α (pmol) compared to NS,[18],significant decrease
same,8-iso-F2α/AA ratio compared to NS,[18],significant decrease
same,AA (pmol) compared to NS,[19],significantly higher
same,LA (pmol) compared to NS,[19],significantly higher
same,5-HETE/AA ratio compared to NS,[20],significant decrease
same,5-oxo-EET (ratio) compared to NS,[20],significant decrease
same,9-HETE/AA ratio compared to NS,[20],significant decrease
same,9-HODE/LA (ratio) compared to NS,[20],significant decrease
same,11-HETE/AA ratio compared to NS,[20],significant decrease
same,AA (pmol) compared to NS,[20],significantly higher
same,LA (pmol) compared to NS,[20],significantly higher
same,PGF2α/AA ratio compared to NS,[20],significant decrease
same,PGF2a/AA (ratio) MEAN,[21],0.033
same,PGF2a/AA (ratio) MEDIAN,[21],0.000
same,Prostaglandin F2α (PGF2α) MEAN,[22],0.036 pmol
same,Prostaglandin F2α (PGF2α) MEDIAN,[22],0.000 pmol
same,13-HODE MEAN,[23],26.618 pmol
same,13-HODE MEDIAN,[23],23.554 pmol
same,11-HETE/AA (ratio) MEAN,[24],0.219
same,11-HETE/AA (ratio) MEDIAN,[24],0.218
same,9-HODE/LA (ratio) MEAN,[25],0.212
same,9-HODE/LA (ratio) MEDIAN,[25],0.168
same,5-HETE/AA (ratio) MEAN,[26],0.129
same,5-HETE/AA (ratio) MEDIAN,[26],0.145
same,13-HODE/AA (ratio) MEAN,[27],2.976
same,13-HODE/AA (ratio) MEDIAN,[27],2.848
same,9-HETE/AA (ratio) MEAN,[28],0.879
same,9-HETE/AA (ratio) MEDIAN,[28],0.887
same,5-HETE MEAN,[29],0.096 pmol
same,5-HETE MEDIAN,[29],0.047 pmol
same,11-HETE MEAN,[29],0.121 pmol
same,11-HETE MEDIAN,[29],0.073 pmol
same,9-HETE MEAN,[30],0.510 pmol
same,9-HETE MEDIAN,[30],0.272 pmol
same,Linoleic Acid MEAN,[31],8239.5 pmol
same,Linoleic Acid MEDIAN,[31],5875.6 pmol
same,9-HODE MEAN,[32],1.791 pmol
same,9-HODE MEDIAN,[32],1.579 pmol
same,Arachidonic Acid MEAN,[33],587.46 pmol
same,Arachidonic Acid MEDIAN,[33],323.65 pmol
same,"5-oxo-ETE (pmol), MEAN",Baseline,0.020 pmol
same,"5-oxo-ETE (ratio), MEAN",Baseline,0.033 ratio
same,"8-iso-F2a (pmol), MEAN",Baseline,0.156 pmol
same,"8-iso-F2a/AA (ratio), MEAN",Baseline,0.307 ratio
same,"5-oxo-ETE (pmol), MEDIAN",Baseline,0.000 pmol
same,"5-oxo-ETE (ratio), MEDIAN",Baseline,0.000 ratio
same,"8-iso-F2a (pmol), MEDIAN",Baseline,0.175 pmol
same,"8-iso-F2a/AA (ratio), MEDIAN",Baseline,0.266 ratio
